Test results taken from patent publication US20260209483A1, “RUBBER COMPOSITIONS COMPRISING ANTIDEGRADANTS” (FLEXSYS AMERICA L.P., priority 2022, published 2026).

Test: Oxidative induction time (OIT) by DSC, compound mixed with polyisoprene
Conditions: 0.5 wt % compound mixed with polyisoprene, isothermal 160 °C in O2, DSC; blank 1-2 minutes
Procedure: OIT is measured according to a procedure carried out in a differential scanning calorimeter (TA Instruments, Q200), also knows as DSC, and is used to predict thermo-oxidative performance of a material. In this procedure, each sample is held in a sample cell and heated under a nitrogen atmosphere to a preselected temperature.
0.5 wt % of a Compound of the Disclosure, or no antidegradant (blank) was mixed with polyisoprene and heated isothermally at 160° C. in O2.
For `Cc1cc(NC(C)C)cc2c1NCC(C)(C)C2` [Compound 47-F, N-isopropyl-3,3,8-trimethyl-1,2,3,4-tetrahydroquinolin-6-amine], the “Peak time of OIT testing” value was 3.2 min. In the case of `Cc1cc(NC(C)c2ccccc2)cc2c1NC(C)(C)CC2` (stereo not shown) [Compound 119-B, 2,2,8-trimethyl-N-(1-phenylethyl)-1,2,3,4-tetrahydroquinolin-6-amine], the “Peak time of OIT testing” value is reported as 21.9 min. In the case of `COc1cc(Nc2ccccc2)cc2c1NC(C)(C)C=C2C` [Compound 7-B, 8-methoxy-2,2,4-trimethyl-N-phenyl-1,2-dihydroquinolin-6-amine], the “Peak time of OIT testing” value is reported as 31.0 min. In the case of `Cc1cc(Nc2ccccc2)cc2c1NC(C)(C)CC2C` (stereo not shown) [Compound 2-B, 2,2,4,8-tetramethyl-N-phenyl-1,2,3,4-tetrahydroquinolin-6-amine], the “Peak time of OIT testing” value is reported as 17.8 min. In the case of `CC1=CC(C)(C)Nc2c1ccc(NC(C)CC(C)C)c2C` (stereo not shown) [Compound 1-J, 2,2,4,8-tetramethyl-N-(4-methylpentan-2-yl)-1,2-dihydroquinolin-7-amine], the “Peak time of OIT testing” value is reported as 2.6 min. With `CC(C)Nc1ccc(Sc2ccc(NC(C)C)cc2)cc1` [Compound 11-A] the “Peak time of OIT testing” value was 2.5 min. With `Cc1c(NC(C)C)ccc2c1NCCC2(C)c1ccccc1` (stereo not shown) [Compound 2-J, N-isopropyl-4,8-dimethyl-4-phenyl-1,2,3,4-tetrahydroquinolin-7-amine] the “Peak time of OIT testing” value was 15.6 min. For `Cc1cc(Cc2cc(C)c(NC(C)C)c(C)c2)cc(C)c1NC(C)C` [Compound 154-A, 4,4′-methylenebis(N-isopropyl-2,6-dimethylaniline)], the “Peak time of OIT testing” value was 1.5 min. With `Cc1cc(NC(C)C)cc2c1NC(c1ccccc1)CC2(C)c1ccccc1` (stereo not shown) [Compound 3-F, N-isopropyl-4,8-dimethyl-2,4-diphenyl-1,2,3,4-tetrahydroquinolin-6-amine] the “Peak time of OIT testing” value was 43.8 min. With `CC(Nc1ccc2[nH]ccc2c1)c1ccccc1` (stereo not shown) [Compound 19-C, N-(1-phenylethyl)-1H-indol-5-amine] the “Peak time of OIT testing” value was 6.9 min. In the case of `CC(Nc1ccc(Cc2ccc(NC(C)c3ccccc3)cc2)cc1)c1ccccc1` (stereo not shown) [Compound 21-A, 4,4′-methylenebis(N-(1-phenylethyl)aniline)], the “Peak time of OIT testing” value is reported as 2.6 min. For `CC(C)Nc1ccc(Oc2ccc(NC(C)C)cc2)cc1` [Compound 27-A], the “Peak time of OIT testing” value was 4.2 min. With `CCC(CC)Nc1cc(C)c2c(c1)C(C)(c1ccccc1)CCN2` (stereo not shown) [Compound 2-F, 4,8-dimethyl-N-(pentan-3-yl)-4-phenyl-1,2,3,4-tetrahydroquinolin-6-amine] the “Peak time of OIT testing” value was 17.4 min. With `COC1=CC(=Nc2ccccc2)C=C2C(C)=CC(C)(C)N=C12` [Compound 7-D, 8-methoxy-2,2,4-trimethyl-N-phenylquinolin-6(2H)-imine] the “Peak time of OIT testing” value was 24.6 min. For `CCC(C)Nc1ccc2c(c1)CCN2` (stereo not shown) [Compound 2-C, N-(sec-butyl) indolin-5-amine], the “Peak time of OIT testing” value was 14.1 min. For `CC1=CC(C)(C)Nc2ccc(NCc3ccco3)cc21` [Compound 1-H, N-(furan-2-ylmethyl)-2,2,4-trimethyl-1,2-dihydroquinolin-6-amine], the “Peak time of OIT testing” value was 10.7 min. With `CC(Nc1ccc(Cc2ccc(NC(C)c3ccco3)cc2)cc1)c1ccco1` (stereo not shown) [Compound 20-A, 4,4′-methylenebis(N-(1-(furan-2-yl)ethyl)aniline)] the “Peak time of OIT testing” value was 2.3 min. With `CC1CC(C)(C)Nc2cc3c(cc21)NC(C)(C)CC3C` (stereo not shown) [Compound 33-H, 2,2,4,7,7,9-hexamethyl-1,2,3,4,6,7,8,9-octahydropyrido[2,3-g]quinoline] the “Peak time of OIT testing” value was 8.3 min. With `CCC(C)Nc1ccc2[nH]ccc2c1` (stereo not shown) [Compound 1-C, N-(sec-butyl)-1H-indol-5-amine] the “Peak time of OIT testing” value was 19.2 min. With `c1coc(CNc2ccc(C(c3ccc(NCc4ccco4)cc3)c3ccco3)cc2)c1` [Compound 7-A, 4,4′-(furan-2-ylmethylene)bis(N-(furan-2-ylmethyl)aniline)] the “Peak time of OIT testing” value was 4.1 min. For `CC1=CC(C)(C)Nc2ccc(Sc3ccc4c(c3)C(C)=CC(C)(C)N4)cc21` [Compound 153-A, bis(2,2,4-trimethyl-1,2-dihydroquinolin-6-yl)sulfane], the “Peak time of OIT testing” value was 5.8 min. In the case of `CCOC(=O)C1=CC(C)(C(=O)OCC)Nc2c(C)cc(Nc3ccccc3)cc21` (stereo not shown) [Compound 120-B, diethyl 2,8-dimethyl-6-(phenylamino)-1,2-dihydroquinoline-2,4-dicarboxylate], the “Peak time of OIT testing” value is reported as 11.5 min. In the case of `CC1CC(C)(C)Nc2ccc(Cc3ccc4c(c3)C(C)CC(C)(C)N4)cc21` (stereo not shown) [Compound 2-A, bis(2,2,4-trimethyl-1,2,3,4-tetrahydroquinolin-6-yl) methane], the “Peak time of OIT testing” value is reported as 10.8 min. For `c1coc(CNc2ccc(Cc3ccc(NCc4ccco4)cc3)cc2)c1` [Compound 8-A, 4,4′-methylenebis(N-(furan-2-ylmethyl)aniline)], the “Peak time of OIT testing” value was 2.9 min. For `CC(C)CCC(C)Nc1ccc(NC(C)CCC(C)C)nc1` (stereo not shown) [Compound 1-E, N^2,N^5-bis(5-methylhexan-2-yl)pyridine-2,5-diamine], the “Peak time of OIT testing” value was 11.1 min. With `Cc1cc(NC(C)C)cc2c1NC(C(C)C)CC2(C)c1ccccc1` (stereo not shown) [Compound 4-F, N,2-diisopropyl-4,8-dimethyl-4-phenyl-1,2,3,4-tetrahydroquinolin-6-amine] the “Peak time of OIT testing” value was 19.6 min. With `CC(C)Nc1ccc(Cc2ccc(NC(C)C)cc2)cc1` [Compound 19-A, 4,4′-methylenebis(N-isopropylaniline)] the “Peak time of OIT testing” value was 2.7 min. With `CC(C)Nc1ccc(C(c2ccccc2)c2ccc(NC(C)C)cc2)cc1` [Compound 16-A, 4,4′-(phenylmethylene)bis(N-isopropylaniline)] the “Peak time of OIT testing” value was 6.6 min. In the case of `CCOC(=O)C1=CC(C)(C(=O)OCC)Nc2ccc(Nc3ccccc3)cc21` (stereo not shown) [Compound 3-H, diethyl 2-methyl-6-(phenylamino)-1,2-dihydroquinoline-2,4-dicarboxylate], the “Peak time of OIT testing” value is reported as 12.9 min. For `Cc1cc(NC(C)C)cc2c1NCCC2(C)c1ccccc1` (stereo not shown) [Compound 1-F, N-isopropyl-4,8-dimethyl-4-phenyl-1,2,3,4-tetrahydroquinolin-6-amine], the “Peak time of OIT testing” value was 20.3 min. In the case of `CC(C)Nc1ccc(C(c2ccc(NC(C)C)cc2)c2ccco2)cc1` [Compound 3-A, 4,4′-(furan-2-ylmethylene)bis(N-isopropylaniline)], the “Peak time of OIT testing” value is reported as 5.9 min. For `CC1=CC(C)(C)Nc2cc3c(cc21)NC(C)(C)C=C3C` [Compound 32-H, 2,2,4,7,7,9-hexamethyl-1,2,6,7-tetrahydropyrido[2,3-g]quinoline], the “Peak time of OIT testing” value was 6.6 min. For `CC1=CC(C)(C)Nc2c(C)cc(Nc3ccccc3)cc21` [Compound 1-B, 2,2,4,8-tetramethyl-N-phenyl-1,2-dihydroquinolin-6-amine], the “Peak time of OIT testing” value was 15.2 min. In the case of `CC1=CC(C)(C)Nc2ccc(Cc3ccc4c(c3)C(C)=CC(C)(C)N4)cc21` [Compound 1-A, bis(2,2,4-trimethyl-1,2-dihydroquinolin-6-yl) methane], the “Peak time of OIT testing” value is reported as 4.8 min.
